Assay results as given in the NIST ThermoML archive (doi:10.1016/j.jct.2010.05.009).

What was measured:
[1] = xn = mol fraction of the nth substance listed; conditions: 101 kPa, Liquid; for viscosity: Capillary tube (Ostwald / Ubbelohde) method; for mass density: Vibrating tube method
[2] = refractive index (Na D-line) (dimensionless); xn = mol fraction of the nth substance listed; conditions: 101 kPa, Liquid, Standard Abbe refractometry

CCCN [propan-1-amine] + C1CCOC1
Conditions | mass density, [1] [kg/m3] | refractive index, [2] | viscosity, [1] [mPa·s]
288.15 K, x2 = 0 | 721.57 | 1.3899 | 0.3851
288.15 K, x2 = 0.0542 | 730.55 | 1.3908 | 0.3898
288.15 K, x2 = 0.1599 | 748.15 | 1.3927 | 0.3991
288.15 K, x2 = 0.1934 | 753.76 | 1.3933 | 0.4021
288.15 K, x2 = 0.3199 | 775.03 | 1.3956 | 0.4138
288.15 K, x2 = 0.4 | 788.58 | 1.397 | 0.4211
288.15 K, x2 = 0.4789 | 802.01 | 1.3985 | 0.4289
288.15 K, x2 = 0.56 | 815.87 | 1.4 | 0.4371
288.15 K, x2 = 0.6402 | 829.71 | 1.4015 | 0.4455
288.15 K, x2 = 0.7201 | 843.56 | 1.4031 | 0.4546
288.15 K, x2 = 0.8791 | 871.41 | 1.4062 | 0.4765
288.15 K, x2 = 0.9585 | 885.46 | 1.4078 | 0.4902
298.15 K, x2 = 0 | 711.08 | 1.3844 | 0.3585
298.15 K, x2 = 0.0542 | 719.96 | 1.3854 | 0.3632
298.15 K, x2 = 0.1599 | 737.23 | 1.3873 | 0.372
298.15 K, x2 = 0.1934 | 742.73 | 1.3879 | 0.3747
298.15 K, x2 = 0.3199 | 763.65 | 1.3902 | 0.3856
298.15 K, x2 = 0.4 | 777.02 | 1.3917 | 0.3926
298.15 K, x2 = 0.4789 | 790.28 | 1.3931 | 0.3996
298.15 K, x2 = 0.56 | 804.04 | 1.3947 | 0.4071
298.15 K, x2 = 0.6402 | – | 1.3965 | –
298.15 K, x2 = 0.651 | 819.66 | – | 0.4149
298.15 K, x2 = 0.7201 | 831.66 | 1.3978 | 0.4229
298.15 K, x2 = 0.8791 | 859.85 | 1.4011 | 0.4396
298.15 K, x2 = 0.9585 | 874.29 | 1.4028 | 0.4489
308.15 K, x2 = 0 | 700.4 | 1.3784 | 0.3222
308.15 K, x2 = 0.0542 | 709.15 | 1.3793 | 0.3269
308.15 K, x2 = 0.1599 | 726.3 | 1.3812 | 0.3363
308.15 K, x2 = 0.1934 | 731.73 | 1.3818 | 0.3393
308.15 K, x2 = 0.3199 | 752.47 | 1.3842 | 0.3509
308.15 K, x2 = 0.4 | 765.73 | 1.3857 | 0.3584
308.15 K, x2 = 0.4789 | 778.88 | 1.3873 | 0.3659
308.15 K, x2 = 0.56 | 792.57 | 1.3889 | 0.3736
308.15 K, x2 = 0.6402 | – | 1.3906 | –
308.15 K, x2 = 0.651 | 806.31 | – | 0.3813
308.15 K, x2 = 0.7201 | 820.22 | 1.3923 | 0.3891
308.15 K, x2 = 0.8791 | 848.66 | 1.3958 | 0.4049
308.15 K, x2 = 0.9585 | 863.3 | 1.3977 | 0.4129

CCCN [propan-1-amine] + CCC(C)(C)O
Conditions | mass density, 288.15 K [kg/m3] | mass density, 298.15 K [kg/m3] | mass density, 308.15 K [kg/m3] | refractive index, 288.15 K | refractive index, 298.15 K | refractive index, 308.15 K | viscosity, 288.15 K [mPa·s] | viscosity, 298.15 K [mPa·s] | viscosity, 308.15 K [mPa·s]
[1], x2 = 0 | 721.57 | 711.08 | 700.4 | – | – | – | 0.3851 | 0.3585 | 0.3222
[1], x2 = 0.0733 | 731.65 | 721.43 | 710.97 | – | – | – | 0.4625 | 0.4161 | 0.3822
[1], x2 = 0.1528 | 742.12 | 732.03 | 721.79 | – | – | – | 0.5521 | 0.4813 | 0.4437
[1], x2 = 0.2327 | 752 | 742.1 | 732.07 | – | – | – | 0.6938 | 0.5258 | 0.501
[1], x2 = 0.3155 | 761.54 | 751.82 | 741.93 | – | – | – | 0.8513 | 0.6157 | 0.5725
[1], x2 = 0.398 | 770.38 | 760.84 | 751.09 | – | – | – | 1.041 | 0.7142 | 0.6756
[1], x2 = 0.4888 | 779.41 | 770.02 | 760.39 | – | – | – | 1.354 | 0.8835 | 0.8338
[1], x2 = 0.5804 | 787.76 | 778.45 | 768.97 | – | – | – | 1.827 | 1.129 | 1.03
[1], x2 = 0.6697 | 795.11 | 785.88 | 776.64 | – | – | – | 2.39 | 1.468 | 1.283
[1], x2 = 0.7769 | 802.69 | 793.82 | 784.6 | – | – | – | 3.288 | 1.974 | 1.664
[1], x2 = 0.8741 | 808.3 | 799.58 | 790.43 | – | – | – | 4.258 | 2.565 | 2.03
[1], x2 = 0.9498 | 811.88 | 803.1 | 793.93 | – | – | – | 5.17 | 3.068 | 2.304
[2], x2 = 0 | – | – | – | 1.3899 | 1.3844 | 1.3784 | – | – | –
[2], x2 = 0.0733 | – | – | – | 1.392 | 1.3868 | 1.3809 | – | – | –
[2], x2 = 0.1528 | – | – | – | 1.3944 | 1.3893 | 1.3835 | – | – | –
[2], x2 = 0.2327 | – | – | – | 1.3968 | 1.3917 | 1.386 | – | – | –
[2], x2 = 0.3155 | – | – | – | 1.3989 | 1.394 | 1.3884 | – | – | –
[2], x2 = 0.398 | – | – | – | 1.4009 | 1.3961 | 1.3906 | – | – | –
[2], x2 = 0.4888 | – | – | – | 1.4028 | 1.398 | 1.3926 | – | – | –
[2], x2 = 0.5804 | – | – | – | 1.4043 | 1.3996 | 1.3944 | – | – | –
[2], x2 = 0.6697 | – | – | – | 1.4053 | 1.4005 | 1.3954 | – | – | –
[2], x2 = 0.7769 | – | – | – | 1.4058 | 1.4012 | 1.3962 | – | – | –
[2], x2 = 0.8741 | – | – | – | 1.406 | 1.4013 | 1.3964 | – | – | –
[2], x2 = 0.9498 | – | – | – | 1.4061 | 1.4014 | 1.3966 | – | – | –
